In patent US11110098B2, “Methods and medicaments for the treatment of renal cell carcinoma” (University of Kansas, priority 2017, dated 2021):

How the values were obtained:
Caki-1 cells [1] = assay: Clonogenic assay, Caki-1 cells; format: cell-based, human; details: 48 h treatment, 10 days growth
Description: 786-O and Caki-1 cells were plated at very low density (1,000 cells/well) in six-well plates. After 16 h, cells were treated with different doses of OPC31260 and incubated for 48 h. Cells were washed and grown for 10 days until visible colonies formed. Colonies were fixed with 4% paraformaldehyde in PBS, stained with 0.25% crystal violet in 25% methanol, washed, air-dried and photographed. Crystal violet was dissolved in sodium citrate buffer (0.1M, 50% ethanol, pH 4.2) and absorbance was recorded at 590 nm.

786-O cells [2] = assay: MTT cell viability, 786-O cells; format: cell-based; details: Homo sapiens, 786-0, 48 h, read-out: dose at which cell viability declined by 50%
Description: MTT assays were performed to measure cell viability. Briefly, exponentially growing 786-O and Caki-1 cells were seeded in 96 well plates. After 24 h, cells were incubated with different doses of OPC31260 for 48 h. The cells were then incubated in MTT solution (5 mg/mL) for 2 h, following which the MTT solution was removed and the intracellular purple formazan was solubilized in DMSO and quantified by spectrophotometry at […].

786-O cells [3] = assay: Annexin V-FITC/PI apoptosis/necrosis, 786-O cells; format: cell-based, human; details: 24 h
Description: (§1) Annexin V-FITC/PI staining was performed for quantification of apoptosis and necrotic cell death using FITC AnnexinV apoptosis detection kit I. Green FITC dye stains apoptotic cells whereas propidium iodide stains necrotic cells with red fluorescence. RCC cells were incubated with OPC31260 for 24 h and washed in cold PBS and resuspended in calcium containing binding buffer (10 mM HEPES, 140 mM NaCl, 5 mM CaCl2; pH 7.4) at a concentration of 1×10^6 cells/ml and stained for 15 min, with 5 μl Annexin V-FITC and 5 μl PI at 1 μg/ml (Cell signaling kit, USA). 10,000 cells were analyzed at an excitation wavelength of 488 nm and emission wavelengths of 530 nm for FITC fluorescence and 610 nm for PI fluorescence. The percentages of viable (Annexin V−PI−), early apoptotic (Annexin V+PI−), late apoptotic/necrotic (Annexin V+PI+) and necrotic cells (Annexin V-PI+) were evaluated with the CellQuestPro® software (Becton, Dickinson, Heidelberg, Germany).

Caki-1 cells [4] = assay: Annexin V-FITC/PI apoptosis/necrosis, Caki-1 cells; format: cell-based, human; details: 24 h
Description: as §1

Caki-1 cells [5] = assay: Cell cycle analysis (propidium iodide, FACS), Caki-1 cells; format: cell-based, human; details: 24 h, 10 μM or higher doses
Description: (§2) 786-O and Caki-1 cells were incubated for 24 h with 0, 1, 5, 10, 25 or 50 μM of OPC31260, and stained with propidium iodide for analysis by flow cytometry. Cells were rinsed with PBS and trypsinized, and washed twice with PBS. Single-cell suspensions were fixed using pre-chilled 70% ethanol overnight, and subsequently permeabilized with PBS containing 0.1% Triton X-100, 1 mg/ml propidium iodide (Sigma-Aldrich) and 2 mg/ml DNase-free RNase at room temperature. Flow cytometry was done with a FACS Calibur analyzer (Becton Dickinson, Mountain, View, Calif.), capturing 10,000 events for each sample. Results were analyzed with ModFit LT™ software (Verity Software House, Topsham, Me.).

786-O cells [6] = assay: Cell cycle analysis (propidium iodide, FACS), 786-O cells; format: cell-based, human; details: 24 h, 10 μM or higher doses
Description: as §2

Caki-1 cells [7] = assay: Immunostaining of xenograft tumor sections (Ki-67, BRDU, CD31); format: in vivo, Nu/Nu mice; details: OPC31260 IP, tolvaptan 120 mg/Kg oral, dDAVP 1 μg/Kg IP, daily 28 days
Description: Female Athymic Nude-Foxn1^nu mice (Nu/Nu mice), 7-8 weeks old and weighing ˜25 g were procured from Envigo/Harlan. All animal studies were carried out according to the protocols approved by the University of Kansas Medical Center Institutional Animal Care and Use Committee. Mice were subcutaneously injected on the right flank region with 1×10^6 Caki-1 cells in 100 μl of DMEM medium. One week after injection, palpable tumors appeared and tumor volume was measured with calipers following the formula, […]. Once the tumor volume reached ˜80-100 mm^3, mice were randomized into sub-groups based on the tumor volume. Animals were administered vehicle, OPC31260 (30 mg/Kg BWt.), OPC31260 (60 mg/Kg BWt) or dDAVP (1 μg/Kg BWt.) and vehicle (saline) by daily intraperitoneal injection, or tolvaptan (120 mg/Kg BWt. in 1% aqueous solution of hydroxypropyl methylcellulose-dose derived from previous study^31) or vehicle by daily oral gavage for 28 days. Body weights and tumor volumes were measured every alternate day. At the end of the study, mice were injected with BRDU (100 mg/Kg BWt. by IP) 90 minutes before sacrifice. Tumors were harvested, photographed and weighed. Tumors were flash frozen or paraffin embedded for further analysis.
Tumor tissues were fixed overnight in 4% paraformaldehyde, dehydrated in a graded alcohol series, and embedded in paraffin for histological analysis as previously described^26. Slides with 5 μm tissue sections were heated in a steamer for 20 min in citrate buffer (pH 6.0) to unmask antigens. Slides were further blocked with 10% goat serum (Invitrogen) and then incubated overnight with primary antibody (V2R, CD31, BRDU, Ki67 and p-H3). After washing the slides with PBST, slides were incubated with appropriate fluorescence-labeled secondary antibody (Invitrogen) and streptavidin HRP conjugated (Invitrogen) secondary antibody for immunoflurorescence and immunohistochemistry, respectively. Slides were also incubated in 4′,6-diamidino-2-phenylindole to visualize nuclei. For immunofluorescence staining, slides were mounted with Fluoromount G (Southern Biotech). For immunohistochemistry, slides were developed with DAB (Vector Laboratories) and counterstained with Harris haematoxylin, dehydrated, and mounted with Permount (Fisher Scientific, Waltham, Mass.). All images were captured using a Nikon 80i microscope (Tokyo, Japan) at the KUMC Imaging Center.

SMILES: Cc1ccccc1C(=O)Nc1ccc(C(=O)N2CCCC(N(C)C)c3ccccc32)cc1 (stereo not drawn) [OPC31260, 5-(dimethylamino)-1-[4-(2-methylbenzamido)benzoyl]-2,3,4,5-tetrahydro-1H-benzazepine]
- dose from which a significant decline in colony formation was observed (Caki-1 cells [1]): 10 µM
- IC50 (786-O cells [2]): 5 to 10 µM
- apoptosis (786-O cells [3]): increase in apoptosis
- apoptosis (Caki-1 cells [4]): increase in apoptosis
- cells in G2/M phase (Caki-1 cells [5]): 60-70%
- cells in G2/M phase (786-O cells [6]): 60-70%
- BRDU staining / incorporation of tumors compared to vehicle (Caki-1 cells [7]): significantly reduced
- Ki-67 staining of tumors compared to vehicle (Caki-1 cells [7]): significantly reduced
- tumor micro-vessel density (CD31 staining) (Caki-1 cells [7]): significantly reduced
